The format of the series is physicochemical. The method, then: X-ray powder diffraction data were acquired using PhotonMax high-flux 9 KW rotating cathode X-ray generator (SmartLab 9 KW, Rigaku). All diffractograms were acquired using copper radiation (CuKα, 45 kV/200 mA, λ=1.5418 Å) and using KB filter to reduce unneeded radiation. The measurement was carried out by placing the sample gently crushed in an agate mortar on a measurement stand and then scanning the sample under 2θscanning conditions with a scanning range of 3° to 40°, a scanning speed of 20°/min, and a step size of 0.02°.
X-ray powder diffraction data were acquired using a diffractometer (MiniFlex 600, Rigaku). All diffractograms were acquired using copper radiation (CuKα, 40 kV/15 mA, λ=1.5418 Å) and using KB filter to reduce unneeded radiation. Scanning was carried out in 2θ with a scanning range of 5° to 50°, a scanning speed of 5°/min, and a step size of 0.02°.
The water content was measured using a coulometric moisture meter (CA-100, Nitto Seiko Analytech), using about 0.5 g of the solid sample, Aquamicron GEX as the solvent, and 3 mg of Aquamicron SS as a titrant.
The water content was measured using a Karl Fischer moisture meter (AQUACOUNTER AQV-2100, HIRANUMA) equipped with an electrolytic bath stirrer for iodine generation and a constant current potentiometer, using about 0.2 g of the solid sample, Aquamicron GEX as the solvent, and 3 mg of Aquamicron SS-Z as a titrant.
The crystal of KUS121 dihydrate was subjected to a normal storage stability test (25° C./60% RH, 18 months) and a storage stability test under accelerated test condition (40° C./75% RH, 6 months). For comparison, the crystal of KUS121 anhydride was also subjected to storage stability tests under accelerated test condition (40° C./75% RH, 6 months) and under ambient temperature condition (30 months).

Setting [1] is: 40° C./75% RH (6 months), dihydrate.

Where two headings read alike, the source gives them in different places.

Where the note is “40° C./75% RH (6 months)”, `Cc1cc(F)ccc1-c1ccc(/N=N/c2cc(S(=O)(=O)[O-])c3ccccc3c2N)cn1.[Na+]` [Crystal of KUS121 anhydride, Sodium 4-amino-3-[6-(4-fluoro-2-methylphenyl)pyridin-3-ylazo]naphthalene-1-sulfonate] displayed a Content of 100.8%, a Purity test of 99.5% and a Water content of 3.0%. Also, the Water content (Ambient temperature (30 months)) turned out to be 9.1%. For the same compound, under “Initial”, the Content was found to be 98.2%, the Purity test is recorded as 99.5% and the Water content came out at 0.8%.

As to `Cc1cc(F)ccc1-c1ccc(/N=N/c2cc(S(=O)(=O)[O-])c3ccccc3c2N)cn1.[Na+]` [Crystal of KUS121 dihydrate, sodium 4-amino-3-[6-(4-fluoro-2-methylphenyl)pyridin-3-ylazo]naphthalene-1-sulfonate dihydrate], the Content (25° C./60% RH (18 months)) worked out at 99.6%; the Content under setting [1] is reported as 99.6%; the Content (Initial, dihydrate) came to 99.7%. Besides, the Related substance was 0.11% (25° C./60% RH (18 months)), 0.09% (40° C./75% RH (6 months)) and 0.07% (Initial). Moreover, the Water content is, setting by setting: (25° C./60% RH (18 months)) 7.4%; under setting [1], 7.4%; (Initial, dihydrate) 7.4%. Moreover, the “Storage stability (overall statement)” value (compared with other hydrate crystals, accelerated test condition) is “had better storage stability than other hydrate crystals, and was extremely stable even under accelerated test condition”.

The record behind these values is US20260242338A1, “CRYSTALS OF N[…]” (KYOTO DRUG DISCOVERY & DEVELOPMENT CO., LTD., priority 2022, published 2026).
